Source: US9326539B2, “Compositions comprising dietary fat complexers and methods for their use” (Soho Flordis International Pty. Ltd., priority 2002, dated 2016)

Legend:
[1] = in vitro study of vegetable oil, water and cyclodextrin: band of wax-like complex; type: physicochemical; conditions: vegetable oil 4 g, water 6 g, varying amounts of cyclodextrin (100-2,000 mg), centrifuged
Experimental: FIG. 9A-9C depicts the results of an in vitro study of vegetable oil (4 g), water (6 g) (with added food coloring for contrast) and varying amounts of (A) α-cyclodextrin (100-2,000 mg, right to left), (B) β-cyclodextrin or (C) γ-cyclodextrin. A band of “wax-like” material layered between the oil and aqueous phases is apparent in the tubes. […] Note the increasing size (right to left) of a white layer of un-reacted α-cyclodextrin in the bottom of the tubes. This material is displaced from solution by either the oil or the α-cyclodextrin-oil complex. These tubes were centrifuged in order to improve the definition of the layers. The “wax-like” complex is of such a consistency that all of the tubes except for the furthest two to the right can be inverted without leakage of the aqueous phase around the complex.
FIGS. 9A-9C depict the results of an in vitro study of vegetable oil (4 g), water (6 g) (with added food coloring for contrast) and varying amounts of (A) α-cyclodextrin (100-2,000 mg, right to left), (B) β-cyclodextrin or (C) γ-cyclodextrin. A band of “wax-like” material layered between the oil and aqueous phases is apparent in the tubes. […] Note the increasing size (right to left) of a white layer of un-reacted α-cyclodextrin in the bottom of the tubes. This material is displaced from solution by either the oil or the α-cyclodextrin-oil complex. These tubes were centrifuged in order to improve the definition of the layers. The “wax-like” complex is of such a consistency that all of the tubes in 9A except for the furthest two to the right can be inverted without leakage of the aqueous phase around the complex.
Thus one would not have expected α-cyclodextrin to complex triglyceride molecules because the molecules would not fit within the pore of the α α-cyclodextrin. […] The white substance in the bottom of the tubes is precipitated cyclodextrin.

[2] = biological target: T1, porcine pancreatic lipase (Sus scrofa, UniProt P00591); assay: lipolytic activity of porcine pancreatic lipase on purified olive oil premixed with α-cyclodextrin; type: biochemical
T1 sequence (P00591 1-450): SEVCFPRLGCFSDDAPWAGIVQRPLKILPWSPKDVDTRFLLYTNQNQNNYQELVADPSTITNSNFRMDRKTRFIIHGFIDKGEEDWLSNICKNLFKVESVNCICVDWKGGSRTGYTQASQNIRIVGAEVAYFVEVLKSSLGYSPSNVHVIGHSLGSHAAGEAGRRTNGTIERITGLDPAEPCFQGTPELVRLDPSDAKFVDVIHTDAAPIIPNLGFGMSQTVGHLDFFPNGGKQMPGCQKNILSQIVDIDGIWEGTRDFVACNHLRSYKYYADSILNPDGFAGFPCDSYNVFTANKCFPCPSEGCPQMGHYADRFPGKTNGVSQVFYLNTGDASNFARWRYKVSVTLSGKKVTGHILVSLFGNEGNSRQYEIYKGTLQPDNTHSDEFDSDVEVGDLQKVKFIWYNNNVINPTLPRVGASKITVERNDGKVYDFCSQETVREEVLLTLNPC
Excerpt: If this were the case it would be difficult to imagine being able to feed enough of the α-cyclodextrin to an animal in order to complex sufficient triglycerides to make a significant difference in body weight as triglycerides and α-cyclodextrin have similar molecular weights. However, from the data disclosed herein wherein e.g., a diet comprising 4% α-cyclodextrin and 40% fat inhibits weight gain and reduces body fat mass, as the molecular weights are very similar, we have calculated that one α-cyclodextrin molecule can complex approximately nine molecules of triglyceride, the equivalent of 27 free fatty acids. Thus we can convert this directly to I gram of α-cyclodextrin complexes approximately 9 grams of triglyceride. […] As these particles are formed in the midst of chyme, a very complex “soup”, the particles may be analogous to lipoprotein particles of the blood stream.

[3] = human volunteer on high fat diet with α-cyclodextrin: weight loss and blood parameters; type: in vivo; conditions: one volunteer; for HDL cholesterol: baseline 0.97; for Triglycerides: baseline 2.76; for Insulin Resistance: baseline 2.85; for Cholesterol: baseline 4.76
Experimental: The α-cyclodextrin was added to the subject's diet in a proportion of one gram Of α-cyclodextrin for every nine grams of fat that were estimated to be consumed by the subject. […] 200 days, approximately 6 months— By 6 months the subject's body weight was reduced by 32 pounds. In addition to the weight loss, within the first two weeks of the study, the subject's elevated blood pressure fell to the point where they were forced to reduce their prescribed beta-blacker by one-third. Their blood triglycerides were also assayed during this time and their blood serum triglyceride levels were decreased by 23% within the first month and 46% by the end of six months.

[4] = dog with chronic diarrhea fed α-cyclodextrin with dry food; type: in vivo; conditions: 2.5 g α-cyclodextrin with two cups dry food twice a day for two and one-half weeks, α-cyclodextrin:fat about 1:9
Experimental: An eighteen month old, neutered male dog of unknown parentage having chronic diarrhea was de-wormed twice and placed on hypoallergenic food in an effort to control the diarrhea. However, the chronic diarrhea was not alleviated and the dog stopped eating for a day or two on two or three separate occasions.
The dog was then treated with α-cyclodextrin as follows: The dog was placed on a diet comprising a teaspoon (2.5 g) of α-cyclodextrin mixed with two cups dry food twice a day for two and one-half weeks. Based on the fat content in the food, the ratio of α-cyclodextrin to fat was about 1:9. The dog's chronic diarrhea was eliminated during this period except for an acute episode of loose stools after a day of swimming in a river but the stool has been formed ever since.
The dog very quickly lost his appetite, self restricted his food intake by about one-half and began eating grass, grass helps to bind his stool. The diarrhea returned.

Structure (SMILES): OC[C@H]1O[C@@H]2O[C@H]3[C@H](O)[C@@H](O)[C@@H](O[C@H]4[C@H](O)[C@@H](O)[C@@H](O[C@H]5[C@H](O)[C@@H](O)[C@@H](O[C@H]6[C@H](O)[C@@H](O)[C@@H](O[C@H]7[C@H](O)[C@@H](O)[C@@H](O[C@H]1[C@H](O)[C@H]2O)O[C@@H]7CO)O[C@@H]6CO)O[C@@H]5CO)O[C@@H]4CO)O[C@@H]3CO [α-cyclodextrin]
- band of wax-like material (complexed fat) between oil and aqueous phases [1]: maximum in the tube labeled 10% (400 mg α-cyclodextrin/4 g oil)
- lipolytic activity of porcine pancreatic lipase [2]: significantly reduced
- body weight reduction ([3]; initial weight 267 pounds, 1 g α-cyclodextrin per 9 g fat, by 6 months): 32 pounds
- Body Mass Index ([3]; 1 month): 39.17
- Hip ([3]; 1 month): 127 cm
- Waist ([3]; 1 month): 124 cm
- HDL cholesterol ([3]; 1 month): 1.00 mmol/L
- Triglycerides ([3]; 1 month): 2.13 mmol/L
- Insulin Resistance ([3]; 1 month): 2.13
- Cholesterol ([3]; 1 month): 4.76 mmol/L
- Body Mass Index ([3]; 6 months): 37.27
- Hip ([3]; 6 months): 117 cm
- Waist ([3]; 6 months): 117 cm
- HDL cholesterol ([3]; 6 months): 1.11 mmol/L
- Triglycerides ([3]; 6 months): 1.50 mmol/L
- Insulin Resistance ([3]; 6 months): 1.35
- Cholesterol ([3]; 6 months): 4.0 mmol/L
- decrease of blood serum triglyceride levels ([3]; by the end of six months): 46%
- decrease of blood serum triglyceride levels ([3]; within the first month): 23%
- elevated blood pressure ([3]; within the first two weeks): fell
- chronic diarrhea [4]: eliminated
